Results reported in ChEMBL document CHEMBL5126504, “A gulose moiety contributes to the belomycin (BLM) disaccharide selective targeting to lung cancer cells” (Eur J Med Chem, 2021).

Legend:
[1] = Selectivity index, ratio of IC50 for cytotoxicity against human BEAS-2B cells to IC50 for cytotoxicity against human A549 cells; assay type: toxicity, cell-based; settings: BEAS-2B cells and A549 cells, read-out: Ratio IC50
[2] = Cytotoxicity against human BEAS-2B cells assessed as reduction in cell viability after 48 hrs by MTT assay; assay type: toxicity, cell-based
A549 = assay: Cytotoxicity against human A549 cells assessed as reduction in cell viability after 48 hrs by MTT assay; assay type: functional, cell-based; settings: A549, 48 h
[3] = Drug uptake in human A549 cells overexpressing GLUT1 assessed as increase in fluorescence intensity at 25 uM measured after 1 hr by DAPI staining based confocal fluorescence microscopic analysis; assay type: ADME, cell-based; settings: a549, 1 h
[4] = Drug uptake in human A549 cells overexpressing GLUT1 assessed as increase in fluorescence intensity at 25 uM measured after 1 hr at 37 degreeC by DAPI staining based confocal fluorescence microscopic analysis; assay type: ADME, cell-based; settings: a549, 1 h

Row | Structure (SMILES) | selectivity ratio [1] | IC50 at 48 h [2] | IC50 (A549) | Drug uptake [3] | Drug uptake [4]
1 | NC(=O)O[C@@H]1[C@H](O)[C@@H](O[C@H]2C(OCCCCCC(=O)Nc3ccn(C4OC(CO)C(O)C4(F)F)c(=O)n3)O[C@H](CO)[C@H](O)[C@H]2O)O[C@H](CO)[C@H]1O (stereo partly drawn) | 20 | 2.6 µM | 130 nM |  | 
2 | CC(=O)OC[C@H]1OC(OCCCCCC(=O)Nc2ccn(C3OC(CO)C(O)C3(F)F)c(=O)n2)[C@@H](O)[C@@H](O)[C@@H]1O (stereo partly drawn) |  | 7.78 µM | 460 nM |  | 
3 | CC[N+]1=C(/C=C/C=C/C=C2/N(CCCCCC(=O)NCCOCCOC3O[C@@H](CO)[C@@H](O)[C@H](O)[C@@H]3O[C@H]3O[C@H](CO)[C@@H](O)[C@H](OC(N)=O)[C@@H]3O)c3ccc(S(=O)(=O)O)cc3C2(C)C)C(C)(C)c2cc(S(=O)(=O)[O-])ccc21 (stereo partly drawn) |  |  |  | Active | 
4 | CC[N+]1=C(/C=C/C=C/C=C2/N(CCCCCC(=O)NCCOCCOC3O[C@@H](CO)[C@H](O)[C@@H](O)[C@@H]3O[C@H]3O[C@H](CO)[C@@H](O)[C@H](OC(N)=O)[C@@H]3O)c3ccc(S(=O)(=O)O)cc3C2(C)C)C(C)(C)c2cc(S(=O)(=O)[O-])ccc21 (stereo partly drawn) |  |  |  | Active | Active
5 | CC[N+]1=C(/C=C/C=C/C=C2/N(CCCCCC(=O)NCCOCCOC3O[C@H](CO)[C@H](O)[C@@H](O)[C@H]3O)c3ccc(S(=O)(=O)O)cc3C2(C)C)C(C)(C)c2cc(S(=O)(=O)[O-])ccc21 (stereo partly drawn) |  |  |  | Active | Active
6 | CC(=O)OC[C@H]1OC(OCCCCCC(=O)Nc2ccn(C3OC(CO)C(O)C3(F)F)c(=O)n2)[C@@H](O)[C@@H](OC(N)=O)[C@@H]1O (stereo partly drawn) |  | 7.77 µM | 920 nM |  | 
7 | CC(=O)OC[C@H]1OC(OCCCCCC(=O)Nc2ccn(C3OC(CO)C(O)C3(F)F)c(=O)n2)[C@H](O)[C@H](O)[C@H]1O (stereo partly drawn) | 20.9 | 5.43 µM | 260 nM |  | 
8 | Nc1ccn([C@@H]2O[C@H](CO)[C@@H](O)C2(F)F)c(=O)n1 [GEMCITABINE] | 0.88 | 0.037 µM | 44 nM |  | 
